pIC50: −log10 of the molar value.
Legend:
Human Jurkat-E6-1 cells = test: Detection of IL-2 production by Jurkat cells using ELISA; format: cell-based; conditions: anti-CD3/anti-CD28 stimulation 24 hours, read-out: Percentage of the amount of IL-2 secreted by compound treated vs DMSO-treated cells; for activity at 1 µM: tested compound 1.0 μM
Procedure, shortened: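 Jurkat E6-1 cells were pre-incubated with compound for 30 min at 37 °C, then stimulated 24 h on plate-bound anti-CD3 plus soluble anti-CD28. Secreted IL-2 in supernatant was measured by sandwich ELISA (450 nm) against a standard curve and expressed as % of DMSO-treated cells.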

MV-4-11 cells = test: Detection of MV-4-11 cell activity (CellTiter-Glo); format: cell-based; conditions: Homo sapiens, MV4-11, 120 h, 5 days, CTG, read-out: IC50, inhibitory effects on MV-4-11 cell activity
Experimental: The CellTiter-Glo (CTG) luminescence method was used to detect the effect of compounds on the activity of MV-4-11 cells.
Tested compounds: compound prepared in the Examples of the present invention.
Add 100 μL containing 20,000 MV-4-11 (human myeloid monocytic leukemia cells, from the Cell Bank of the Chinese Academy of Sciences, Cat. No. SCSP-5031) cell suspension to 96-well flat-bottom clear-bottomed cell plates (Corning, Cat #3603), and then add 100 μL of cell culture medium containing a series of concentrations of the compound to be tested, with a total volume of 200 μL per well. The final gradient concentrations of the compounds were 500 nM, 125 nM, 31.25 nM, 7.813 nM, 1.953 nM, 0.488 nM, 0.122 nM, 0.031 nM, and 0.008 nM, and the final DMSO content was 0.5%. Set cells with the cell culture medium containing 0.5% DMSO but without compounds as the 100% control; set the culture medium wells without cells as 0% background control. Incubate the cell plate in a humidified incubator at 37° C. and 5% CO2 for 5 days. After 5 days, take out the cell plate, centrifuge (1000 rpm) for 5 minutes, remove and discard 100 μL supernatant, add 100 μL CTG reagent (Promega, Cat #G7572) to each well, shake at room temperature for 10 minutes to promote cell lysis, and incubate at room temperature for 30 minutes to stabilize the luminescence signal. Use a microplate reader (Molecular Device, i3X) to read the Luminescent fluorescence value, use GraphPad Prism 5.0 software to analyze the original data, use nonlinear S-curve regression to fit the data to obtain the dose-effect curve (cell survival rate %), and calculate the IC50 value.

HPK1 = HPK1 (Homo sapiens, UniProt Q92918); test: HPK1 kinase activity inhibition test (ADP-Glo, luminescence); format: biochemical; conditions: 2 μM ATP, 5 nM HPK1, read-out: IC50, inhibitory effects on HPK1 kinase activity
Procedure, shortened: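 Autophosphorylation assay without added substrate: HPK1 preincubated with compound 10 min at 25 °C, then ATP added for 60 min at 25 °C; final DMSO 0.5%. ADP measured by ADP-Glo luminescence; IC50 from four-parameter nonlinear fit.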

FLT3 = biological target: T1, FLT3 (Homo sapiens, UniProt P36888); test: FLT3 kinase activity inhibition test (HTRF); format: biochemical; conditions: read-out: IC50, inhibitory effects on FLT3 kinase activity
T1 sequence (P36888 27-993): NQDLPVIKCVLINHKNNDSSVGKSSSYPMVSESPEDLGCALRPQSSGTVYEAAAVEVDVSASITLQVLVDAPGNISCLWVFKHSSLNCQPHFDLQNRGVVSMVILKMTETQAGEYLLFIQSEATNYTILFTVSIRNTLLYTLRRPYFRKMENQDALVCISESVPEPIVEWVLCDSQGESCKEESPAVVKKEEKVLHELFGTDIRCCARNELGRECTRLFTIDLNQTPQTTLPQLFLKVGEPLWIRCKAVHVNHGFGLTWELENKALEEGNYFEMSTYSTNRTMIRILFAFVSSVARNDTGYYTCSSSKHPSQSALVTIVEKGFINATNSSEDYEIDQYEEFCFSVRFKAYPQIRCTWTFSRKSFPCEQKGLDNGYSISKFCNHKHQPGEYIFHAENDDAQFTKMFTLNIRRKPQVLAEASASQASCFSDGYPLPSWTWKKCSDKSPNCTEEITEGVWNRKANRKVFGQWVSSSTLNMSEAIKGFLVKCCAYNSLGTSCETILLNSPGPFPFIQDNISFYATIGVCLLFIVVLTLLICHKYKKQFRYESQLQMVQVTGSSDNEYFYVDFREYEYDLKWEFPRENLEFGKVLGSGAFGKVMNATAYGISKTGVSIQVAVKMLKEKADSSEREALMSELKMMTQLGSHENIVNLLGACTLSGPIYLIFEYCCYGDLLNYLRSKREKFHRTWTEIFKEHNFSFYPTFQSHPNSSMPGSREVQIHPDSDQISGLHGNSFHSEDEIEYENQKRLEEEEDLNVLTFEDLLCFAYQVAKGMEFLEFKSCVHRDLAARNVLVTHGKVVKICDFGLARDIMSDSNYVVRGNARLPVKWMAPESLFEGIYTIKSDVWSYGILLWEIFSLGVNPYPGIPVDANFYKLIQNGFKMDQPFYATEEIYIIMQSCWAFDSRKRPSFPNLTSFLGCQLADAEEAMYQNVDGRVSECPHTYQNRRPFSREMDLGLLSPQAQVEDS
Experimental: (§1) Tested compounds: compounds prepared in the Examples of this invention.
(§2) Prepare compound stock solution: dissolve the test compound in 100% DMSO to make a 10 mM stock solution. Dilute the stock solution of the test compound by 5 times with 100% DMSO, make a 4-fold equal dilution in a 96-well dilution plate, add 1 μL of the compound to 39 μL of kinase reaction buffer (1×kinase buffer, 5 mM MgCl2, 1 mM DTT), and shake on a microplate shaker for 20 minutes. 4×Positive control (4 μL of positive compound solution of the starting concentration, add 196 μL of kinase buffer) and 4×negative control (4 μL of 100% DMSO, add 196 μL of kinase buffer).
(§3) (1) Use 1×kinase reaction buffer to prepare 2.5×FLT3 kinase solution (160 μM), transfer 2 μL of the kinase solution to the 384 reaction plate, and add 1 μL of the test compound solution of gradient concentration to the 384 reaction plate (Greiner, Cat #784075), centrifuge for 1 minute (1000 rpm), and incubate at 25° C. for 10 minutes.
(§4) (2) Use 1×kinase reaction buffer to prepare 2.5×TK-substrate-biotin (2.5 μM) and 2.5×ATP (2.5 μM), mix well, and add 2 μL of the TK-substrate-biotin/ATP solution to the 384 reaction plate, centrifuge for 30 seconds (1000 rpm), and incubate at 25° C. for 40 minutes.
(§5) (3) Use HTRF detection buffer to prepare 2×Sa-XL 665 (125 nM) and 1×TK-antibody-Cryptate. Add 5 μL of a mixture of Sa-XL 665 and TK-antibody-Cryptate solutions to each well, centrifuge for 30 seconds (1000 rpm), and react at room temperature for 1 hour.
(§6) (4) The fluorescence signal is read using a Biotek multi-function plate reader, and the IC50 (half inhibitory concentration) of the compound is obtained using a four-coefficient nonlinear fitting formula.

KDR = KDR (Homo sapiens, UniProt P35968); test: KDR kinase activity inhibition test (HTRF); format: biochemical; conditions: read-out: IC50, inhibitory effects on KDR kinase activity
Experimental: as §1, §2
as §3, with “2.5×KDR” for “2.5×FLT3”, “(250” for “(160”
as §4, §5, §6

Sequence of HPK1 (Q92918 whole entry): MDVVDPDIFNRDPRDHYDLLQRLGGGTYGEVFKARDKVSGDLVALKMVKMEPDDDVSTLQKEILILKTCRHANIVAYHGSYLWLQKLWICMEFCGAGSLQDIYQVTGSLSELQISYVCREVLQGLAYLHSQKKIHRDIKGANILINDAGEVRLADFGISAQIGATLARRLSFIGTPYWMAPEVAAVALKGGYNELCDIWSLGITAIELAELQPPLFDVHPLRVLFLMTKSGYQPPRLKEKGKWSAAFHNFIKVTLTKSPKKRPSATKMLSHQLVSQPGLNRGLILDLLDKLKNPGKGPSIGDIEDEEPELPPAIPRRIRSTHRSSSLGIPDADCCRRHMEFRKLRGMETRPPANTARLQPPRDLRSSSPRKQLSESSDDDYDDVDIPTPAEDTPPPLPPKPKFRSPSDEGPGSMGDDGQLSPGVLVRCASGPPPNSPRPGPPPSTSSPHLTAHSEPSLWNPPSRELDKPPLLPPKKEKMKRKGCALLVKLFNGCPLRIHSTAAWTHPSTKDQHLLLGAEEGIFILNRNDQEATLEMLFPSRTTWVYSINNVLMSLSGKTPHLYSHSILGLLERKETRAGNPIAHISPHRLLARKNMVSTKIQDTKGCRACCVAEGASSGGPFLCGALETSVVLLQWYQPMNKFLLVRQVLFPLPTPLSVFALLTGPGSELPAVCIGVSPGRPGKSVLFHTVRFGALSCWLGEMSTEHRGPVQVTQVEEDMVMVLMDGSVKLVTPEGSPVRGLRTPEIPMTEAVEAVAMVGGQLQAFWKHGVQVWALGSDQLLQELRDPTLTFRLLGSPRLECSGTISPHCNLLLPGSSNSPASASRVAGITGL
Sequence of KDR (P35968 20-1356): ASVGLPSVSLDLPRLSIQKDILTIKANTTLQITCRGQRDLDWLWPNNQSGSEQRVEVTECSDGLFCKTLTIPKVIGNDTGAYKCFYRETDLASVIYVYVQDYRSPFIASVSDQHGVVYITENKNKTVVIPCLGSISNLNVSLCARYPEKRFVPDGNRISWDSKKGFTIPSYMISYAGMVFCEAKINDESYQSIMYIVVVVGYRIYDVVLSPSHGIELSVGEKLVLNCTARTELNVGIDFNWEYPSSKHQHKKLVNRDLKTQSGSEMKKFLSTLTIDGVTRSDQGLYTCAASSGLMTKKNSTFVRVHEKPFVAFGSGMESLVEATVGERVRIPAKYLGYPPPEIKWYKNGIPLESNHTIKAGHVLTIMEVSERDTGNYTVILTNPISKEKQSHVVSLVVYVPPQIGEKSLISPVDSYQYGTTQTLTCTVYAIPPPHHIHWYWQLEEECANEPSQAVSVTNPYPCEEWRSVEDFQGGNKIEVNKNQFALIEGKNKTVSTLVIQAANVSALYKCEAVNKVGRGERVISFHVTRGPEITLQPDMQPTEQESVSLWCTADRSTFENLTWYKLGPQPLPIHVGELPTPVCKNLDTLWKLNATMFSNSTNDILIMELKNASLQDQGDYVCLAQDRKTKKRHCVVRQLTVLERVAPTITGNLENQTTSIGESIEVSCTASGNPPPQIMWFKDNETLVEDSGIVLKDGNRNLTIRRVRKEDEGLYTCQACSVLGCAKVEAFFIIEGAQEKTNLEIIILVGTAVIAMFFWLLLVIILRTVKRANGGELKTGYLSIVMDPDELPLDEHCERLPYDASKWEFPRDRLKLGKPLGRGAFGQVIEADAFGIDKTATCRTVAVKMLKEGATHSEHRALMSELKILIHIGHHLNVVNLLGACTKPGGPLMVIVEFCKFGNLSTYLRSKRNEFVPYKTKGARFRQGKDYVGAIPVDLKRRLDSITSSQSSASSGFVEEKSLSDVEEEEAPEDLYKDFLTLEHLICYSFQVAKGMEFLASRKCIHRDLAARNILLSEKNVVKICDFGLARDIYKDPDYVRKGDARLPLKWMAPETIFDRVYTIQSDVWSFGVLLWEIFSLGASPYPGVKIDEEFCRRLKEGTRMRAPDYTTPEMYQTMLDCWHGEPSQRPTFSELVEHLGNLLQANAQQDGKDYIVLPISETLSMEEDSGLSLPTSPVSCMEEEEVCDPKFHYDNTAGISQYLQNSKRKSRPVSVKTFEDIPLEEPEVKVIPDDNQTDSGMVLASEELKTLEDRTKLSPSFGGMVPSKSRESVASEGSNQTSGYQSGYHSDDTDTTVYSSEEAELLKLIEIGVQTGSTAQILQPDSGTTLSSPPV

Row | pIC50 (MV-4-11 cells) | pIC50 (HPK1) | pIC50 (FLT3) | pIC50 (KDR) | SMILES | activity at 3 µM (Human Jurkat-E6-1 cells; tested compound 3.0 μM) [%] | activity at 0.33 µM (Human Jurkat-E6-1 cells; tested compound 0.33 μM) [%] | activity at 1 µM (Human Jurkat-E6-1 cells) [%]
1 | 7.30 | 7.30 to 8.30 |  |  | Fc1cccc2c1-c1cc3c(n[nH]c3cn1)-c1ccc(N3CCOCC3)c(c1)OCCCO2 [Compound 5, 16-fluoro-5-(morpholin-4-yl)-7,11-dioxa-19,22,23-triazapentacyclo[16.5.2.1^2,6.0^12,17.0^21,24]hexacosa-1(23),2(26),3,5,12,14,16,18,20,24-decaene] | 717 |  | 
2 | 8.21 | ≥ 8.30 | ≥ 8.30 | ≥ 8.30 | CN1CCN(c2ccc3cc2OCCCOCc2cccc(F)c2-c2cc4c-3n[nH]c4cn2)CC1 [Compound 11, 17-fluoro-5-(4-methylpiperazin-1-yl)-7,11-dioxa-20,23,24-triazapentacyclo[17.5.2.1^2,6.0^13,18.0^22,25]heptacosa-1(24),2(27),3,5,13,15,17,19,21,25-decaene] |  |  | 
3 |  | ≥ 8.30 | ≥ 8.30 | ≥ 8.30 | CN1CCN(c2ccc3cc2OCCCOCc2cccc(F)c2-c2cc4c-3n[nH]c4cn2)C[C@H]1CO [Compound 122, [(2S)-4-{17-fluoro-7,11-dioxa-20,23,24-triazapentacyclo[17.5.2.1^2,6.0^13,18.0^22,25]heptacosa-1(24),2,4,6(27),13(18),14,16,19,21,25-decaen-5-yl}-1-methylpiperazin-2-yl]methanol] |  | 345 | 
4 |  | ≥ 8.30 | ≥ 8.30 | ≥ 8.30 | CN1C[C@@H]2C[C@H]1CN2c1ccc2cc1OCCCOCc1cccc(F)c1-c1cc3c-2n[nH]c3cn1 [Compound 151, 17-fluoro-5-[(1S,4S)-5-methyl-2,5-diazabicyclo[2.2.1]heptan-2-yl]-7,11-dioxa-20,23,24-triazapentacyclo[17.5.2.1^2,6.0^13,18.0^22,25]heptacosa-1(24),2,4,6(27),13(18),14,16,19,21,25-decaene] |  |  | 416

Row | SMILES | pIC50 (MV-4-11 cells) | pIC50 (HPK1) | pIC50 (FLT3) | pIC50 (KDR) | activity at 3 µM (Human Jurkat-E6-1 cells; tested compound 3.0 μM) [%] | activity at 0.33 µM (Human Jurkat-E6-1 cells; tested compound 0.33 μM) [%] | activity at 1 µM (Human Jurkat-E6-1 cells) [%]
5 | CN1C2CCC1CN(c1ccc3cc1OCCCOc1cccc(F)c1-c1cc4c-3n[nH]c4cn1)C2 [Compound 144, 16-fluoro-5-{8-methyl-3,8-diazabicyclo[3.2.1]octan-3-yl}-7,11-dioxa-19,22,23-triazapentacyclo[16.5.2.1^2,6.0^12,17.0^21,24]hexacosa-1(23),2,4,6(26),12(17),13,15,18,20,24-decaene] |  | ≥ 8.30 | ≥ 8.30 | ≥ 8.30 |  |  | 517
